Consider one compound from patent publication US10301299B2, “Glycosidase inhibitors” (Merck Patent GmbH, priority 2013, dated 2019).

The test system of assay [1] is Tg(tauP301L)4510 mice. The assay can be described thus: Western blot of O-GlcNAcylation and tau phosphorylation in brain of Tg4510 mice. The format is in vivo, mouse. As for the experimental part: (§1) Animals: Tg(tauP301L)4510 mice were generated as previously described (Santacruz et al., 2005, Science 309: 476-481). Animals were bred and housed at the McLaughlin Research Institute (Great Falls, Mont.). All experiments were approved by the MRI Institutional Animal Care and Use Committee (IACUC).
Tau immunoprecipitation: To immunoprecipitate tau protein from brain lysates a Crosslink Immunoprecipitation kit (Pierce 26147) was used. The A/G resin was crosslinked to 10 μg of the HT7 tau antibody (Thermo Scientific MN1000) or control mouse IgG (Santa Cruz Biotech sc-2025) via the manufacturer's protocol. 250 μg of brain lysates prepared as described below was incubated with the resin-coupled tau antibody overnight at 4-C. Samples were eluted with 50 μl of low pH Elution buffer and immediately centrifuged into collection tubes containing 5 μl of 1M Tris, pH 9.5. Immunoprecipitated tau was subjected to Western blotting as described below.
Western Blot: To examine changes in O-GlcNAcylation and phosphorylation, animals were euthanized 4 h after injection in the acute or subchronic studies and 24 h after the last injection in the chronic study. Hemi-forebrains were rapidly dissected and frozen on dry ice. Tissue samples were homogenized in Phosphosafe Buffer (EMD Chemicals), followed by a low-speed centrifugation (15,000 g) to remove cellular debris. The resulting supernatant (low-speed supernatant, Lss) was assayed to determine protein concentrations by Lowry method. O-GlcNAcylation and phosphorylation were determined in 20 μg protein samples subjected to 4-15% SDS-PAGE (Tris-HCl gels, Bio-Rad), followed by a transfer to nitrocellulose membranes (Invitrogen, IBlot system). Membranes were blocked in Licor blocking buffer at room temperature for 1 h and incubated in primary antibody overnight at 4° C. Total protein O-GlcNAcylation was detected using the RL2 antibody (1:500, ThermoScientific), tau O-GlcNAcylation was detected using the Otau(S400) antibody (1:500) and tau phosphorylation was detected using AT8 (1:500, ThermoScientific), pS396, pS262, pS356 (1:500, Abcam) and pS400 (1:5000, GenScript). GAPDH (1:1000, Abcam) or total tau (1:50,000 ThermoScientific) antibodies served as internal loading controls. Membranes were incubated with species-specific fluorophore-conjugated secondary (1:10,000; Licor) antibodies for 1 h at room temperature and detected using the Licor Odyssey. […]
On the technique in general: Immunoblotting shows a protein as a band on a membrane.

The test system of assay [2] is Tg(tauP301L)4510 mice. As to the kind of experiment: Immunohistochemistry (AT8) and Bielschowsky stain of hippocampus in Tg4510 mice. The format is in vivo, mouse. The conditions noted are these: chronic 4 months. As for the experimental part: as §1
Immunohistochemistry: To examine changes in tangle pathology, a hemibrain was dissected and immersion fixed in 10% neutral buffered formalin for 24-48 h and subsequently embedded in paraffin blocks. 10 micron serial coronal sections were mounted onto Superfrost Plus slides, and stained using Bond Intense R kit. To detect dystrophic AT8 neurons, mounted slides were pretreated with antigen retrieval solutions for 10 min followed by washes with BOND wash buffer. Sections were subsequently quenched with hydrogen peroxide in Bond Intense R kit, blocked with M.O.M. blocking buffer (M.O.M Immunodetection Kits, Vector Laboratories), and then incubated with pS202/205 primary antibody (1:500; ThermoScientific). Sections were then incubated sequentially with biotinylated donkey anti-mouse secondary antibody (1:200; Jackson Immunoresearch), Streptavidin-HRP, and 3,3′-diaminobenzidine (both BOND Intense R kit). To detect agyrophilic tangles, sections were deparafinized, rehydrated in distilled water and treated with formaldehyde (4%) overnight at 37° C. Sections were washed in tap water, incubated in a 20% silver nitrate solution for 15 min in the dark, washed, incubated with ammoniated silver solution for 10 min in the dark, washed in ammonia water, and treated with developer. Sections were subsequently washed in ammonia water, distilled water, thiosulfate sodium, dehydrated and mounted.

Take `CCN=C1N[C@@H]2[C@@H](O)[C@H](O)[C@@H](CO)O[C@@H]2S1` [ThiametG]: the “tau O-GlcNAcylation elevated (Otau(S400))” value in assay [1] (4 months of dosing) was found to be 9 fold. Moreover, the “levels of total protein O-GlcNAcylation” value in assay [1] (4 months, 500 mg/kg/day) worked out at 185%. For the same compound, in assay [1] (14 days), the “tau phosphorylation at S202/205” value was “returned towards basal levels”, the “tau phosphorylation at S262” value is on record as “returned towards basal levels”, the “tau phosphorylation at S356” value is “still significantly reduced” and the “tau phosphorylation at S396” value is “returned towards basal levels”. Also, in assay [1] (14 days of administration, 500 mg/kg/day, vs vehicle), the “total protein O-GlcNAcylation in the CNS” value is reported as “significant increase”. In assay [1] (acute treatment), the “tau phosphorylation at S400” value was “did not alter”. Also, in assay [1] (repeated injection (14 days), vs vehicle), the “increase in tau O-GlcNAcylation (Otau(S400))” value was determined as 9 fold. In addition, in assay [1] (single injection), the “tau O-GlcNAcylation (Otau(S400))” value is reported as “small increase”, the “tau phosphorylation at S202/205” value is “reduced”, the “tau phosphorylation at S262” value is “reduced” and the “tau phosphorylation at S356” value was “reduced”. The “tau phosphorylation at S396” value in assay [1] (single injection) is on record as “reduced”. Also, in assay [1] (single injection, 500 mg/kg/day, 4 h, vs vehicle), the “total protein O-GlcNAcylation in the CNS” value is “significant increase”. Moreover, in assay [2] (CA1 region of the hippocampus), the “pS202/205 (AT8) positive dystrophic neurons” value is on record as “significantly reduced” and the “tangle pathology (Bielschowsky staining)” value was “significant reduction”. Besides, in assay [2] (CA3 region of the hippocampus), the “pS202/205 (AT8) positive dystrophic neurons” value is listed as “significantly reduced” and the “tangle burden (Bielschowsky staining)” value was “no difference”.
